Reference: patent US20140227173A1, “CANCER TREATMENT WITH GAMMA-SECRETASE INHIBITORS” (The Johns Hopkins University, priority 2006, published 2014)

What was measured:
[1] = tested on: E3LZ10.7; assay: Colony formation in soft agar after pre-treatment; assay type: cell-based, human
Protocol: (Top) Experimental scheme illustrating pre-treatment of pancreatic cancer cell lines with GSI-18, prior to plating for soft agar assays and subcutaneous injection in athymic mice. Treatment for 24 hours with GSI-18 or vehicle is followed by recovery in full serum for a further 24 hours minus the drug. Equal numbers of viable cells from the control and treated groups are then plated for colony assays in soft agar, or injected in nude mice. Of note, during the in vitro or in vivo assays, no further drug is administered. […] The dosage required for significant inhibition of clonogenicity varies between 2 μM (Capan-1) to 5 μM (E3LZ10.7). Bar graphs represent colony counts at two weeks, with mean and standard deviations calculated from triplicate experiments. (Left) Pre-treatment with GSI-18 inhibits tumorigenicity of Panc-1 pancreatic cancer cell line in athymic mice. […] Error bars represent standard deviation of five mice per arm.

[2] = tested on: panel of 10 human pancreatic cancer cell lines; assay: MTT growth assay; assay type: cell-based; conditions: 96 hours; dosages of 2, 5, and 10 μM
[3] = tested on: D283Med; assay: Side population (Hoechst 33342 excretion) flow cytometry; assay type: cell-based; conditions: D283Med; 2 μM GSI-18 or verapamil
Protocol: (§1) The ability to excrete Hoechst dye, which defines SP (also known as “side population”) in flow cytometric analyses, is another marker of tumor-initiating CSC in the blood and brain (7, 8, 20). SP was therefore analyzed to obtain a second measure of the effects of Notch on CSC.
(§2) Flow cytometric analysis of S-phase fraction and cell cycle kinetics was performed using a FACSCalibur (Becton Dickinson, San Jose, Calif.) with CELL Quest, version 3.3 software (15). CD133 studies were performed using the same instrument, with antibodies from Miltenyi (Miltenyi Biotec, Auburn, Calif.) according to the manufacturer's instructions. […] Prior to analysis, cells were washed and resuspended in 2 μg/ml PI (Sigma, St. Louis, Mo.). […] To ensure proper identification of SP cells, cells were incubated as above with the addition of 50 μM verapamil (Sigma).

[4] = tested on: DAOY:NICD2; assay: as above; assay type: cell-based; conditions: 2 μM GSI-18 or verapamil
Protocol: as §1, §2

[5] = tested on: D425Med; assay: as above; assay type: cell-based; conditions: D425Med; 2 μM GSI-18 or verapamil
Protocol: as §1, §2

[6] = tested on: DAOY; assay: as above; assay type: cell-based; conditions: DAOY; 2 μM; untreated SP 1.9%
Protocol: as §1, §2

[7] = tested on: DAOY; assay: Nestin immunocytochemistry, strongly nestin-positive fraction; assay type: cell-based; conditions: 2 μM, 48 hours
[8] = tested on: PFSK; assay: Flow cytometric analysis of the cell cycle; assay type: cell-based; conditions: 2 μM
Text: (§3) Double immunolabeling, using antibodies specific for nestin and for Ki67, a marker of proliferating cells, was used to determine effects of Notch pathway blockade on the cell cycle. […] While adult neural stem cells are generally thought to be relatively quiescent, during embryonic growth of the brain the stem cell compartment is highly proliferative. The high rate of division observed in stem-like MB cells may reflect their similarity to those in fetal germinal epithelium.
(§4) Flow cytometric analysis of S-phase fraction and cell cycle kinetics was performed using a FACSCalibur (Becton Dickinson, San Jose, Calif.) with CELL Quest, version 3.3 software (15). CD133 studies were performed using the same instrument, with antibodies from Miltenyi (Miltenyi Biotec, Auburn, Calif.) according to the manufacturer's instructions. Cells expressing levels of CD133 higher than those seen in IgG controls were considered positive. For analyses of side population, cells (10^6/ml) were incubated with Hoechst 33342 (3 μM, Molecular Probes, Carlsbad, Calif.) for 90 minutes at 37° C. in DMEM containing 2% FBS. Prior to analysis, cells were washed and resuspended in 2 μg/ml PI (Sigma, St. Louis, Mo.). Cells were analyzed on a LSR flow cytometer equipped with 424/44 nm band pass and 670 nm long pass optical filters (Omega Optical, Brattleboro, Vt.). […]

[9] = tested on: DAOY; assay: Flow cytometric analysis of the cell cycle; assay type: cell-based; conditions: 2 μM
Text: as §3, §4

[10] = tested on: PFSK; assay: Number of live cells (Guava Viacount); assay type: cell-based; conditions: 2 μM
Protocol: (§5) The fact that cultures grew 2-fold or more during the same time period that side population was essentially ablated by Notch pathway blockade provides additional support for the notion that medulloblatoma CSC are especially vulnerable to Notch signaling inhibition.
(§6) The DAOY, PFSK, D283 and D425 Med cell lines were obtained from the American Type Culture Collection. The low-passage MB line MB2 was derived from a tumor resected at Johns Hopkins Hospital. For treatment studies, cell were plated and allowed to grow overnight in MEM (Invitrogen, Carlsbad, Calif.) containing 10% FBS, then media was replaced the next morning with low serum (0.5% FBS) MEM containing GSI dissolved in DMSO. RNA and protein extractions, and all cell-based assays, were performed 48 hours after drug application unless otherwise noted. All experiments with error bars were performed in triplicate and shown as mean values with standard error unless otherwise noted. Cell mass was measured using CellTITER assays according to the manufacturer's instructions (Promega, Madison, Wis.). Cell number and viability were assessed using the Guava PCA and Viacount reagent according to instructions (Guava Technologies, Heyward, Calif.). Soft agar assays were performed as previously described (15) and scored either manually after 4 weeks or using as automated reader after 6 weeks. The constitutively active Akt stable cell line was made by transfecting DAOY cells with myristolated Akt (pCB6-IMy-Akt-HA) or control (pCB6+) plasmids (kind gifts from Susan J. Baker) and selecting and maintaining clones in 0.8 mg/ml G418. Soft agar assays were performed as previously described, with colonies counted using an automated reader (15).

[11] = tested on: D283Med; assay: Number of live cells (Guava Viacount); assay type: cell-based; conditions: 2 μM
Protocol: as §5, §6

[12] = tested on: D425Med; assay: Number of live cells (Guava Viacount); assay type: cell-based; conditions: 2 μM
Protocol: as §5, §6

[13] = tested on: DAOY; assay: Number of live cells (Guava Viacount); assay type: cell-based; conditions: 2 μM
Protocol: as §5, §6

[14] = tested on: GBM neurospheres; assay: Proliferation (Ki67 index) in the Nestin positive population of GBM neurospheres; assay type: cell-based
Text: It has been shown that the Notch signaling pathway regulates normal stem cells in the Central Neural System (CNS), and that GBMs contain cancer stem cells (CSCs) with higher Notch activity (Cancer Research, 64:7011-21, 2004; Cancer Cell, 9:391-403, 2006). However, it has not been known if Notch pathway blockade could target CSCs in GBM. […] In the present study, we used GBM neurospheres to examine the effects of Notch pathway blockade in GBM. […] Furthermore, overexpression of an active form of Notch2 (NICD2) increases tumor growth in vitro.

O=S(=O)(NC1C2CCC1Cc1ccccc1C2)c1cccs1 (stereo not drawn) [GSI-18, [11-endo]-N-(5,6,7,8,9,10-hexahydro-6,9-methanobenzo[α][8]annulen-11-yl)-thiophene-2-sulfonamide]
colony formation following pre-treatment ([1]; 24 hours pre-treatment, 24 hours recovery minus drug, colony counts at two weeks): Significant inhibition of colony formation | dosage required for significant inhibition of clonogenicity ([1]; pre-treatment): 5 µM | in vitro growth measured by MTT assays [2]: modest to minimal effects on growth | side population [3]: ablated | side population under NICD2 expression [4]: protected the SP from GSI-18 exposure | side population [5]: ablated | remaining cells negative for Hoechst dye (side population) [6]: 0.01% | fold reduction of strongly nestin-positive fraction ([7]; p<0.01): 4 fold | strongly nestin-positive fraction after treatment ([7]; untreated 10%): 2.4% | G1/G0, S phase and G2/M cell fractions [8]: increased the G1/G0 cell fraction and decreased the S phase and G2/M fractions | G1/G0, S phase and G2/M cell fractions [9]: increased the G1/G0 cell fraction and decreased the S phase and G2/M fractions | growth in the number of live cells [10]: reduced as compared to vehicle treated controls | growth in the number of live cells [11]: reduced as compared to vehicle treated controls | growth in the number of live cells [12]: reduced as compared to vehicle treated controls | growth in the number of live cells [13]: reduced as compared to vehicle treated controls | proliferation (Ki67 index) in the Nestin positive population [14]: decrease in proliferation (Ki67 index)
